Data reported in patent EP4786466A1, “QUINAZOLINE DERIVATIVE, SALT THEREOF, AND PHARMACEUTICAL COMPOSITION COMPRISING SAME AS ACTIVE INGREDIENT” (Korea Research Institute of Chemical Technology, priority 2023, dated 2025).
Where two headings read alike, the source gives them in different places.

Legend:
[1] = tested on: MCF7 breast cancer cell lines; test: Cell viability analysis, WST-8 assay, MCF7; conditions: Homo sapiens, MCF7, 72 h; for viability at 1 µM: read-out: Cell viability (%) WST-8, MCF7 (1 µM), compound 1 µM, 72 hours
Description: (§1) MCF7 breast cancer cell lines and MCF10A normal breast cancer cell lines were treated with serial dilutions of the compounds of the present invention ranging from 1 µM to 15.63 nM for 72 hours. Cell viability was measured by the WST-8 assay (Cyto XTM cell viability assay kit; LPS solution, Daejeon, Korea) according to the manufacturer's instructions.

[2] = biological target: T1, Recombinant GST-TAG-MASTL (Homo sapiens, UniProt Q96GX5); test: HTRF-based kinase assay (HTRF KinEASE assay kit); assay type: biochemical; conditions: for IC50: HTRF, read-out: IC50(nM) MASTL activity; for activity at 1 µM: read-out: MASTL activity (%) HTRF (1 µM)
T1 construct: GST; purchased Thermo Fisher Scientific
T1 sequence (Q96GX5 1-879): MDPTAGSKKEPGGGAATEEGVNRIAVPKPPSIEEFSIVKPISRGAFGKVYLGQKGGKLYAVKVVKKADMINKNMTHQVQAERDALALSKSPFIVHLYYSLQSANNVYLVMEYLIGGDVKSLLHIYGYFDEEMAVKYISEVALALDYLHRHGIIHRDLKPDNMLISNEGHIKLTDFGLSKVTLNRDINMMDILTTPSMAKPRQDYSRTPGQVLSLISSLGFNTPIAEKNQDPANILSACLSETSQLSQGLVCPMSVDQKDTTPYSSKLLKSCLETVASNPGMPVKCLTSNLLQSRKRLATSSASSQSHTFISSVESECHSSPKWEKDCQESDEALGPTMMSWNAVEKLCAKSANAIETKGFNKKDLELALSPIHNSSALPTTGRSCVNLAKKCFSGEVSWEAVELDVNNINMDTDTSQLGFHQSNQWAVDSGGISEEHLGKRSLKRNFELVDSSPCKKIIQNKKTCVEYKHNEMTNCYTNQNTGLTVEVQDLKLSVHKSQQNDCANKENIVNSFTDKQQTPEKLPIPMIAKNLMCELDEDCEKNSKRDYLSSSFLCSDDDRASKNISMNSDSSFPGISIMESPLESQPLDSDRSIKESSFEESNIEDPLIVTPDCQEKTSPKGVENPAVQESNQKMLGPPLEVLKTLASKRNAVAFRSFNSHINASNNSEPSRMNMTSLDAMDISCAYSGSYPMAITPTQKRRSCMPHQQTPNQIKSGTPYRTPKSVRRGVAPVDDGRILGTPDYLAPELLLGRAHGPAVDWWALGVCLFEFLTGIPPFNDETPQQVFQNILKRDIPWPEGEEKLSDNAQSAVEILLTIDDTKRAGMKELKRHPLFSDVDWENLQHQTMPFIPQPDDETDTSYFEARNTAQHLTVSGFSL
Description: Recombinant GST-TAG-MASTL (Thermo Fisher Scientific, MA, USA) was used for HTRF-based kinase assays. The HTRF KinEASE assay kit (CisBio, MA, USA) was used according to the manufacturer's instructions.

in vitro = conditions: human, mcf10a cells
Description: as §1

pENSA = pENSA level by immunofluorescence (described method: in vitro kinase analysis with GST-tag-MASTL and His-tag-ENSA); assay type: cell-based; conditions: for pENSA (%) Immunofluor ecense (1 µM): compound 1 µM
Method in brief: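 In vitro kinase reaction using recombinant GST-tagged MASTL with His-tagged ENSA as substrate; phosphorylated ENSA (pENSA) serves as read-out of MASTL activity. Cell lines named: MCF7 breast cancer and MCF10A.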

Structure (SMILES)	viability at 1 µM [1] [%]	IC50 [2] [nM]	activity at 1 µM ([2]; compound 1 µM) [%]	viability at 1 µM (in vitro) [%]	pENSA (%) Immunofluor ecense (1 µM) (pENSA) [%]	activity at 1 µM [2] [%]	IC50 (pENSA; read-out: IC50(nM) pENSA) [nM]	viability at 1.1 µM ([1]; read-out: Cell viability (%) WST-8, MCF7, footnote d: concentration 1.1 µM, 72 hours) [%]	viability at 1.1 µM (in vitro) [%]
CC(C)(C)OC(=O)N1CC=C(c2nc(Nc3cc(C4CC4)[nH]n3)c3ccccc3n2)CC1 [compound 7, sdqs-butyl 4-(4-((5-cyclopropyl-1G-pyrazol-3-yl)amino)quinazolin-2-yl)-3,6-dihydropyridine-1(2G)-carboxylate]	84.2	315	31	54.9	68.2				
C1=C(c2nc(Nc3cc(C4CC4)[nH]n3)c3ccccc3n2)CCNC1 [compound 8, M-(5-cyclopropyl-1G-pyrazol-3-yl)-2-(1,2,3,6-tetrahydropyridin-4-yl)quinazolin-4-amine trifluoroacetic acid]	64.3			80.8	53	57.2			
O=C(c1ccccc1)N1CC=C(c2nc(Nc3cc(C4CC4)[nH]n3)c3ccccc3n2)CC1 [compound 9a, (4-(4-((5-cyclopropyl-1G-pyrazol-3-yl)amino)quinazolin-2-yl)-3,6-dihydropyridin-1(2G)-yl)(phenyl)methanone]	63.8	203	45.5	49.7	50.5				
CC(C)(C)OC(=O)N1CCN(c2nc(Nc3cc(C4CC4)[nH]n3)c3ccccc3n2)CC1 [compound 10, sdqs-butyl 4-(4-((5-cyclopropyl-1G-pyrazol-3-yl)amino)quinazolin-2-yl)piperazine-1-carboxylate]	61.4	569	24.1	60.7	50.3				
O=C(Nc1ccccc1)N1CC2CC1CN2c1nc(Nc2cc(C3CC3)[nH]n2)c2ccccc2n1 (stereo not shown) [compound 15c, 5-(4-((5-cyclopropyl-1G-pyrazol-3-yl)amino)quinazolin-2-yl)-M-phenyl-2,5-diazabicyclo[2.2.1]heptane-2-carboxamide]	93	265	41.2	40	11.3		576		
CC(C)C(=O)N1CC2CC1CN2c1nc(Nc2cc(C3CC3)[nH]n2)c2ccccc2n1 (stereo not shown) [compound 15d, 1-(5-(4-((5-cyclopropyl-1G-pyrazol-3-yl)amino)quinazolin-2-yl)-2,5-diazabicyclo[2.2.1]heptan-2-yl)-2-methylpropan-1-one]	51.5		58.8	40.3	68.6				
O=C(c1ccccc1)N1CC2CC1CN2c1nc(Nc2cc(C3CC3)[nH]n2)c2ccccc2n1 (stereo not shown) [compound 15e, (5-(4-((5-cyclopropyl-1G-pyrazol-3-yl)amino)quinazolin-2-yl)-2,5-diazabicyclo[2.2.1]heptan-2-yl)(phenyl)methanone]	68.3		80	31.3	48.2				
CC(C)CN1CC2CC1CN2c1nc(Nc2cc(C3CC3)[nH]n2)c2ccccc2n1 (stereo not shown) [compound 15f, M-(5-cyclopropyl-1G-pyrazol-3-yl)-2-(5-isobutyl-2,5-diazabicyclo[2.2.1]heptan-2-yl)quinazolin-4-amine]	71.7		65.7	90.1	65.3				
c1ccc(CN2CC3CC2CN3c2nc(Nc3cc(C4CC4)[nH]n3)c3ccccc3n2)cc1 (stereo not shown) [compound 15g, 2-(5-benzyl-2,5-diazabicyclo[2.2.1]heptan-2-yl)-M-(5-cyclopropyl-1G-pyrazol-3-yl)quinazolin-4-amine]	54.4	225	27.9	42.9	65.6				
O=S(=O)(c1cccc(Cl)c1)N1CC2CC1CN2c1nc(Nc2cc(C3CC3)[nH]n2)c2ccccc2n1 (stereo not shown) [compound 15q, 2-(5-((3-chlorophenyl)sulfonyl)-2,5-diazabicyclo[2.2.1]heptan-2-yl)-M-(5-cyclopropyl-1G-pyrazol-3-yl)quinazolin-4-amine]		545	49.2		62.5			106	108
O=S(=O)(c1cccc(C(F)(F)F)c1)N1CC2CC1CN2c1nc(Nc2cc(C3CC3)[nH]n2)c2ccccc2n1 (stereo not shown) [compound 15u, M-(5-cyclopropyl-1G-pyrazol-3-yl)-2-(5-((3-(trifluoromethyl)phenyl)sulfonyl)-2,5-diazabicyclo[2.2.1]heptan-2-yl)quinazolin-4-amine]	107	269	48.3	121	100				
Cc1ccc(S(=O)(=O)N2CC3CC2CN3c2nc(Nc3cc(C4CC4)[nH]n3)c3ccccc3n2)cc1F (stereo not shown) [compound 15w, M-(5-cyclopropyl-1G-pyrazol-3-yl)-2-(5-((3-fluoro-4-methylphenyl)sulfonyl)-2,5-diazabicyclo[2.2.1]heptan-2-yl)quinazolin-4-amine]	93.5		64.1	107	86.2				
CCCc1ccc(S(=O)(=O)N2CC3CC2CN3c2nc(Nc3cc(C4CC4)[nH]n3)c3ccccc3n2)cc1 (stereo not shown) [compound 15x, M-(5-cyclopropyl-1G-pyrazol-3-yl)-2-(5-((4-propylphenyl)sulfonyl)-2,5-diazabicyclo[2.2.1]heptan-2-yl)quinazolin-4-amine]	122		68.4	98.3	94.0				
O=S(=O)(c1cccc2cccnc12)N1CC2CC1CN2c1nc(Nc2cc(C3CC3)[nH]n2)c2ccccc2n1 (stereo not shown) [compound 15z, M-(5-cyclopropyl-1G-pyrazol-3-yl)-2-(5-(quinolin-8-ylsulfonyl)-2,5-diazabicyclo[2.2.1]heptan-2-yl)quinazolin-4-amine]	110		105	111	102				
O=S(=O)(c1ccc(F)cc1F)N1CC2CCC1CN2c1nc(Nc2cc(C3CC3)[nH]n2)c2ccccc2n1 (stereo not shown) [compound 24c, M-(5-cyclopropyl-1G-pyrazol-3-yl)-2-(5-((2,4-difluorophenyl)sulfonyl)-2,5-diazabicyclo[2.2.2]octan-2-yl)quinazolin-4-amine]	68.3		16.6	10.8	24.3				
CN(C)S(=O)(=O)c1ccc(Nc2nc(Nc3ccc(CC#N)cc3)nc3ccccc23)cc1 [compound 25a, 4-((2-((4-(cyanomethyl)phenyl)amino)quinazolin-4-yl)amino)-M,M-dimethylbenzenesulfonamide]	105		114	71.6	91.2				
CN(C)S(=O)(=O)c1ccc(Nc2nc(Nc3ccc(C#N)cc3)nc3ccccc23)cc1 [compound 25b, 4-((2-((4-cyanophenyl)amino)quinazolin-4-yl)amino)-M,M-dimethylbenzenesulfonamide]	86.4		91.6	58.1	102				
